Biological target: GDP-bound KRAS protein (aa 1-169), containing both G12C and C118A amino acid substitutions (Homo sapiens, UniProt P01116, C118A/G12C)
Assay: Coupled Nucleotide Exchange Assay (SOS-mediated nucleotide exchange, AlphaScreen)
Format: biochemical
Conditions: compound pre-incubation either 5 min or 2 hours (not stated per compound); SOS and GTP added, cRAF AlphaScreen read-out
Description: For compounds in Table 6, the following assay conditions were employed:
Coupled Nucleotide Exchange Assay: Purified GDP-bound KRAS protein (aa 1-169), containing both G12C and C118A amino acid substitutions and an N-terminal His-tag, was pre-incubated in assay buffer (25 mM HEPES pH 7.4, 10 mM MgCl2, and 0.01% Triton X-100) with a compound dose-response titration for either 5 min or 2 hours (see Table 15). Following compound pre-incubation, purified SOS protein (aa 564-1049) and GTP (Roche 10106399001) were added to the assay wells and incubated for an additional 30 min (for 5 min compound pre-incubation) or 1 hour (for 2 hour compound pre-incubation). To determine the extent of inhibition of SOS-mediated nucleotide exchange, purified GST-tagged cRAF (aa 1-149), nickel chelate AlphaLISA acceptor beads (PerkinElmer AL108R), and AlphaScreen glutathione donor beads (PerkinElmer 6765302) were added to the assay wells and incubated for 10 minutes. The assay plates were then read on a PerkinElmer EnVision Multilabel Reader, using AlphaScreen® technology, and data were analyzed using a 4-parameter logistic model to calculate IC50 values.

Sequence of GDP-bound KRAS protein (aa 1-169), containing both G12C and C118A amino acid substitutions (P01116 1-169 isoform P01116-2 G12C/C118A): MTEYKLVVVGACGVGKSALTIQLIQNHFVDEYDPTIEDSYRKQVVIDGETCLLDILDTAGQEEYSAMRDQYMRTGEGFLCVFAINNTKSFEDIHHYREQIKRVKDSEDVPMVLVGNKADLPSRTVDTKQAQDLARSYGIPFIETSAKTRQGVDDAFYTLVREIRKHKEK

SMILES | IC50
C=CC(=O)N1C[C@H](C)N(C2=NS(=O)(=O)N(c3ccccc3C(C)(C)C)c3nc(-c4ccccc4S(C)(=O)=O)c(Cl)cc32)C[C@H]1C (atropisomer, axis not shown) [Example 1-10-1] | 80 nM
C=CC(=O)N1C[C@H](C)N(C2=NS(=O)(=O)N(c3ccccc3C(C)(C)C)c3nc(-c4ccccc4S(C)(=O)=O)c(Cl)cc32)C[C@H]1C (atropisomer, axis not shown) [Example 1-10-2] | 5950 nM
C=CC(=O)N1C[C@H](C)N(C2=NS(=O)(=O)N(c3c(C)cc(N)nc3C(C)C)c3nc(-c4ccccc4F)c(Cl)cc32)C[C@H]1C (atropisomer, axis not shown) [Example 10, 1-((2R,5S)-4-(1-(6-Amino-4-methyl-2-(2-propanyl)-3-pyridinyl)-6-chloro-7-(2-fluorophenyl)-2,2-dioxido-1H-pyrido[2,3-c][1,2,6]thiadiazin-4-yl)-2,5-dimethyl-1-piperazinyl)-2-propen-1-one] | 1270 nM
C=CC(=O)N1C[C@H](C)N(C2=NS(=O)(=O)N(c3ccccc3C(C)(C)C)c3nc(-c4c(N)cccc4F)c(Cl)cc32)C[C@H]1C (single isomer, unassigned) [Example 1-8-1] | 10 nM
C=CC(=O)N1C[C@H](C)N(C2=NS(=O)(=O)N(c3ccccc3C(C)(C)C)c3nc(-c4c(N)cccc4F)c(Cl)cc32)C[C@H]1C (single isomer, unassigned) [Example 1-8-2] | 69300 nM
C=CC(=O)N1C[C@H](C)N(C2=NS(=O)(=O)N(c3c(C)cnn3C(C)C)c3nc(-c4ccccc4F)c(Cl)cc32)C[C@H]1C (single isomer, unassigned) [Example 1-11-1] | 540 nM
C=CC(=O)N1C[C@H](C)N(C2=NS(=O)(=O)N(c3c(C)ccnc3C(C)C)c3nc(-c4ccccc4C)c(Cl)cc32)C[C@H]1C (single isomer, unassigned) [Example 1-12-2] | 3550 nM
C=CC(=O)N1C[C@H](C)N(C2=NS(=O)(=O)N(c3ccccc3C(C)(C)C)c3nc(-c4ccccc4F)c(Cl)cc32)C[C@H]1C [Example 1-1-1, 1-((2R,5S)-4-(6-chloro-7-(2-fluorophenyl)-1-(2-(2-methyl-2-propanyl)phenyl)-2,2-dioxido-1H-pyrido[2,3-c][1,2,6]thiadiazin-4-yl)-2,5-dimethyl-1-piperazinyl)-2-propen-1-one] | 150 nM
C=CC(=O)N1C[C@H](C)N(C2=NS(=O)(=O)N(c3ccccc3C(C)(C)C)c3nc(-c4ccccc4F)c(Cl)cc32)C[C@H]1C [Example 1-1-2, 1-((2R,5S)-4-(6-chloro-7-(2-fluorophenyl)-1-(2-(2-methyl-2-propanyl)phenyl)-2,2-dioxido-1H-pyrido[2,3-c][1,2,6]thiadiazin-4-yl)-2,5-dimethyl-1-piperazinyl)-2-propen-1-one] | 70800 nM
C=CC(=O)N1C[C@H](C)N(C2=NS(=O)(=O)N(c3ccc(CN(C)C)cc3C(C)(C)C)c3nc(-c4ccccc4F)c(Cl)cc32)C[C@H]1C [Example 1-13-1, 1-((2R,5S)-4-(6-chloro-1-(4-((dimethylamino)methyl)-2-(2-methyl-2-propanyl)phenyl)-7-(2-fluorophenyl)-2,2-dioxido-1H-pyrido[2,3-c][1,2,6]thiadiazin-4-yl)-2,5-dimethyl-1-piperazinyl)-2-propen-1-one] | 40 nM
C=CC(=O)N1C[C@H](C)N(C2=NS(=O)(=O)N(c3ccc(CN(C)C)cc3C(C)(C)C)c3nc(-c4ccccc4F)c(Cl)cc32)C[C@H]1C [Example 1-13-2, 1-((2R,5S)-4-(6-chloro-1-(4-((dimethylamino)methyl)-2-(2-methyl-2-propanyl)phenyl)-7-(2-fluorophenyl)-2,2-dioxido-1H-pyrido[2,3-c][1,2,6]thiadiazin-4-yl)-2,5-dimethyl-1-piperazinyl)-2-propen-1-one] | 3870 nM

Other lines, results leading:

IC50 | SMILES
3500 nM | C=CC(=O)N1C[C@H](C)N(C2=NS(=O)(=O)N(c3c(C)cc(N)nc3C(C)C)c3nc(-c4ccccc4F)c(Cl)cc32)C[C@H]1C (atropisomer, axis not shown) [Example 10-1, 1-((2R,5S)-4-(1-(6-amino-4-methyl-2-(2-propanyl)-3-pyridinyl)-6-chloro-7-(2-fluorophenyl)-2,2-dioxido-1H-pyrido[2,3-c][1,2,6]thiadiazin-4-yl)-2,5-dimethyl-1-piperazinyl)-2-propen-1-one]
390 nM | C=CC(=O)N1C[C@H](C)N(C2=NS(=O)(=O)N(c3c(C)cc(N)nc3C(C)C)c3nc(-c4ccccc4F)c(Cl)cc32)C[C@H]1C (atropisomer, axis not shown) [Example 10-2, 1-((2R,5S)-4-(1-(6-amino-4-methyl-2-(2-propanyl)-3-pyridinyl)-6-chloro-7-(2-fluorophenyl)-2,2-dioxido-1H-pyrido[2,3-c][1,2,6]thiadiazin-4-yl)-2,5-dimethyl-1-piperazinyl)-2-propen-1-one]
170 nM | C=CC(=O)N1C[C@H](C)N(C2=NS(=O)(=O)N(c3c(N)ncnc3C(C)C)c3nc(-c4ccccc4F)c(Cl)cc32)C[C@H]1C (single isomer, unassigned) [Example 9-1]
11200 nM | C=CC(=O)N1C[C@H](C)N(C2=NS(=O)(=O)N(c3c(N)ncnc3C(C)C)c3nc(-c4ccccc4F)c(Cl)cc32)C[C@H]1C (single isomer, unassigned) [Example 9-2]
2690 nM | C=CC(=O)N1C[C@H](C)N(C2=NS(=O)(=O)N(c3c(CC)cccc3CC)c3nc(-c4ccccc4F)c(Cl)cc32)C[C@H]1C [Example 1-6, 1-((2R,5S)-4-(6-chloro-1-(2,6-diethylphenyl)-7-(2-fluorophenyl)-2,2-dioxido-1H-pyrido[2,3-c][1,2,6]thiadiazin-4-yl)-2,5-dimethyl-1-piperazinyl)-2-propen-1-one]
890 nM | C=CC(=O)N1C[C@H](C)N(C2=NS(=O)(=O)N(c3c(CC)cccc3CC)c3nc(-c4c(N)cccc4F)c(Cl)cc32)C[C@H]1C [Example 1-7, 1-((2R,5S)-4-(7-(2-amino-6-fluorophenyl)-6-chloro-1-(2,6-diethylphenyl)-2,2-dioxido-1H-pyrido[2,3-c][1,2,6]thiadiazin-4-yl)-2,5-dimethyl-1-piperazinyl)-2-propen-1-one]
110 nM | C=CC(=O)N1C[C@H](C)N(C2=NS(=O)(=O)N(c3ccccc3C(C)(C)C)c3nc(-c4ccccc4S(C)(=O)=O)c(Cl)cc32)C[C@H]1C [Example 1-10]
600 nM | C=CC(=O)N1C[C@H](C)N(C2=NS(=O)(=O)N(c3c(C)ccnc3C(C)C)c3nc(-c4ccccc4C)c(Cl)cc32)C[C@H]1C [Example 1-12, 1-((2R,5S)-4-(6-chloro-7-(2-methylphenyl)-1-(4-methyl-2-(2-propanyl)-3-pyridinyl)-2,2-dioxido-1H-pyrido[2,3-c][1,2,6]thiadiazin-4-yl)-2,5-dimethyl-1-piperazinyl)-2-propen-1-one]
530 nM | C=CC(=O)N1CCN(C2=NS(=O)(=O)N(c3c(C)ccnc3C(C)C)c3nc(-c4ccccc4F)c(Cl)cc32)[C@@H](C)C1 [Example 2-2, (S)-1-(4-(6-chloro-7-(2-fluorophenyl)-1-(2-isopropyl-4-methylpyridin-3-yl)-2,2-dioxido-1H-pyrido[2,3-c][1,2,6]thiadiazin-4-yl)-3-methylpiperazin-1-yl)prop-2-en-1-one]

Source: US10988485B2 (Amgen Inc., priority 2018, dated 2021)
